{"source": "PubChem BioAssay AID328", "about": "(DTP/NCI, 2004)", "test_system": "BDF1 mice, P388 leukemia ip, median survival T/C", "experiment": "NCI In Vivo Anticancer Drug Screen. Data for tumor model P388 Leukemia (intraperitoneal) in B6D2F1 (BDF1) mice", "conditions": "endpoint: median survival time, higher = longer survival", "procedure,_shortened": "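Mice carrying the transplantable tumour receive compound or vehicle. Survival is followed in each arm, and the treated measure is divided by the vehicle measure.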", "key": {"[1]": {"conditions": "dose: 100.0 mg/kg/injection, schedule: Q01DX009 (ip), vehicle: saline"}, "[2]": {"conditions": "dose: 400.0 mg/kg/injection, schedule: Q01DX009 (ip), vehicle: saline"}, "[3]": {"conditions": "dose: 12.5 mg/kg/injection, schedule: Q01DX009 (ip), vehicle: water"}, "[4]": {"conditions": "dose: 25.0 mg/kg/injection, schedule: Q01DX009 (ip), vehicle: water"}, "[5]": {"conditions": "dose: 25.0 mg/kg/injection, schedule: Q04DX003 (ip), vehicle: water"}, "[6]": {"conditions": "dose: 50.0 mg/kg/injection, schedule: Q01DX009 (ip), vehicle: water"}, "[7]": {"conditions": "dose: 50.0 mg/kg/injection, schedule: Q04DX003 (ip), vehicle: water"}}, "note": "“And” between values parts separate entries of the source, which are not always exact repeats. Equal values may be shown once. Toxic doses and inconclusive results are not listed.", "data": [{"compound": "CCc1ccc(/C=C/c2ccc(O)c3ncccc23)[n+](C)c1", "values": [{"measurement": "T/C", "setting": "dose: 0.74 mg/kg/injection, schedule: Q01DX009 (ip), vehicle: saline", "value": "100 % of control"}, {"measurement": "T/C", "setting": "dose: 1.1 mg/kg/injection, schedule: Q01DX009 (ip), vehicle: saline", "value": "109 % of control"}, {"measurement": "T/C", "setting": "dose: 1.7 mg/kg/injection, schedule: Q01DX009 (ip), vehicle: Klucel (hydroxypropylcellulose) (HPC)", "value": "108 % of control"}, {"measurement": "T/C", "setting": "dose: 1.7 mg/kg/injection, schedule: Q01DX009 (ip), vehicle: saline", "value": "150 % of control"}, {"measurement": "T/C", "setting": "dose: 2.6 mg/kg/injection, schedule: Q01DX009 (ip), vehicle: saline", "value": "160 % of control"}, {"measurement": "T/C", "setting": "dose: 4.1 mg/kg/injection, schedule: Q01DX009 (ip), vehicle: Klucel (hydroxypropylcellulose) (HPC)", "value": "122 % of control"}, {"measurement": "T/C", "setting": "dose: 8.0 mg/kg/injection, schedule: Q01DX009 (ip), vehicle: Klucel (hydroxypropylcellulose) (HPC)", "value": "150 % of control"}, {"measurement": "T/C", "setting": "dose: 8.0 mg/kg/injection, schedule: Q01DX009 (ip), vehicle: saline with Tween-80", "value": "170 % of control"}, {"measurement": "T/C", "setting": "dose: 8.0 mg/kg/injection, schedule: Q04DX003 (ip), vehicle: saline", "value": "122 % of control"}, {"measurement": "T/C", "setting": "dose: 10.56 mg/kg/injection, schedule: Q01DX009 (ip), vehicle: saline with Tween-80", "value": "154 % of control"}, {"measurement": "T/C", "setting": "dose: 16.0 mg/kg/injection, schedule: Q01DX009 (ip), vehicle: Klucel (hydroxypropylcellulose) (HPC)", "value": "170 % of control"}, {"measurement": "T/C", "setting": "dose: 16.0 mg/kg/injection, schedule: Q01DX009 (ip), vehicle: saline with Tween-80", "value": "159 % of control and 179 % of control"}, {"measurement": "T/C", "setting": "dose: 16.5 mg/kg/injection, schedule: Q01DX009 (ip), vehicle: Klucel (hydroxypropylcellulose) (HPC)", "value": "160 % of control and 166 % of control"}, {"measurement": "T/C", "setting": "dose: 24.0 mg/kg/injection, schedule: Q01DX009 (ip), vehicle: saline with Tween-80", "value": "158 % of control"}, {"measurement": "T/C", "setting": "dose: 25.0 mg/kg/injection, schedule: Q01DX009 (ip), vehicle: Klucel (hydroxypropylcellulose) (HPC)", "value": "171 % of control and 185 % of control"}, {"measurement": "T/C", "setting": "dose: 32.0 mg/kg/injection, schedule: Q01DX009 (ip), vehicle: saline with Tween-80", "value": "179 % of control"}]}, {"compound": "O=P(CCCl)(OCCCl)N1CCCCC1", "note": "(stereo unspecified)", "values": [{"measurement": "T/C", "setting": "dose: 50.0 mg/kg/injection, schedule: Q04DX003 (ip), vehicle: saline", "value": "104 % of control"}, {"measurement": "T/C", "setting": "[1]", "value": "104 % of control"}, {"measurement": "T/C", "setting": "dose: 100.0 mg/kg/injection, schedule: Q04DX003 (ip), vehicle: saline", "value": "108 % of control"}, {"measurement": "T/C", "setting": "dose: 200.0 mg/kg/injection, schedule: Q01DX009 (ip), vehicle: saline", "value": "104 % of control"}, {"measurement": "T/C", "setting": "[2]", "value": "109 % of control"}]}, {"compound": "Cc1cccc(-n2c(CC#N)n[nH]c2=S)c1", "values": [{"measurement": "T/C", "setting": "dose: 50.0 mg/kg/injection, schedule: Q01DX009 (ip), vehicle: saline with Tween-80", "value": "96 % of control"}, {"measurement": "T/C", "setting": "dose: 200.0 mg/kg/injection, schedule: Q01DX009 (ip), vehicle: saline with Tween-80", "value": "100 % of control"}]}, {"compound": "CCOC(=O)Nc1nc(Cl)c(Cl)nc1Cl", "values": [{"measurement": "T/C", "setting": "dose: 0.78 mg/kg/injection, schedule: Q01DX009 (ip), vehicle: water", "value": "105 % of control"}, {"measurement": "T/C", "setting": "dose: 1.56 mg/kg/injection, schedule: Q01DX009 (ip), vehicle: water", "value": "114 % of control"}, {"measurement": "T/C", "setting": "dose: 3.12 mg/kg/injection, schedule: Q01DX009 (ip), vehicle: water", "value": "96 % of control"}, {"measurement": "T/C", "setting": "dose: 6.25 mg/kg/injection, schedule: Q01DX009 (ip), vehicle: water", "value": "100 % of control and 110 % of control"}, {"measurement": "T/C", "setting": "dose: 6.25 mg/kg/injection, schedule: Q04DX003 (ip), vehicle: water", "value": "90 % of control"}, {"measurement": "T/C", "setting": "[3]", "value": "91 % of control and 95 % of control"}, {"measurement": "T/C", "setting": "dose: 12.5 mg/kg/injection, schedule: Q04DX003 (ip), vehicle: water", "value": "266 % of control and 102 % of control"}, {"measurement": "T/C", "setting": "[4]", "value": "100 % of control"}, {"measurement": "T/C", "setting": "[5]", "value": "269 % of control"}, {"measurement": "T/C", "setting": "[6]", "value": "87 % of control and 89 % of control"}, {"measurement": "T/C", "setting": "[7]", "value": "266 % of control and 116 % of control"}, {"measurement": "T/C", "setting": "dose: 100.0 mg/kg/injection, schedule: Q01DX009 (ip), vehicle: water", "value": "89 % of control and 95 % of control"}, {"measurement": "T/C", "setting": "dose: 200.0 mg/kg/injection, schedule: Q01DX009 (ip), vehicle: water", "value": "105 % of control and 108 % of control"}, {"measurement": "T/C", "setting": "dose: 400.0 mg/kg/injection, schedule: Q01DX009 (ip), vehicle: water", "value": "118 % of control"}]}, {"compound": "COc1ccc(C(C)(C#N)Nc2ccccc2)cc1", "note": "(stereo unspecified)", "values": [{"measurement": "T/C", "setting": "dose: 50.0 mg/kg/injection, schedule: Q04DX003 (ip), vehicle: saline sonified", "value": "100 % of control"}, {"measurement": "T/C", "setting": "dose: 100.0 mg/kg/injection, schedule: Q04DX003 (ip), vehicle: saline sonified", "value": "100 % of control"}, {"measurement": "T/C", "setting": "dose: 200.0 mg/kg/injection, schedule: Q04DX003 (ip), vehicle: saline sonified", "value": "100 % of control"}]}, {"compound": "C=CCCC(=O)OC(C)(C)C", "values": [{"measurement": "T/C", "setting": "[3]", "value": "103 % of control"}, {"measurement": "T/C", "setting": "dose: 25.0 mg/kg/injection, schedule: Q01DX009 (ip), vehicle: saline", "value": "109 % of control"}, {"measurement": "T/C", "setting": "[4]", "value": "100 % of control"}, {"measurement": "T/C", "setting": "[5]", "value": "106 % of control"}, {"measurement": "T/C", "setting": "[6]", "value": "100 % of control"}, {"measurement": "T/C", "setting": "[7]", "value": "116 % of control"}, {"measurement": "T/C", "setting": "[1]", "value": "109 % of control"}, {"measurement": "T/C", "setting": "dose: 100.0 mg/kg/injection, schedule: Q04DX003 (ip), vehicle: water", "value": "114 % of control"}, {"measurement": "T/C", "setting": "dose: 200.0 mg/kg/injection, schedule: Q04DX003 (ip), vehicle: water", "value": "98 % of control"}, {"measurement": "T/C", "setting": "[2]", "value": "100 % of control"}, {"measurement": "T/C", "setting": "dose: 400.0 mg/kg/injection, schedule: Q04DX003 (ip), vehicle: water", "value": "114 % of control"}]}]}
